Patent US9220669B2, “Resveratrol ferulate compounds, compositions containing the compounds, and methods of using the same” (ELC Management LLC, priority 2007, dated 2015)

System: endogenous reactive oxygen species (ROS), primarily hydrogen peroxide (H2O2), in normal human epidermal keratinocyte (NHEK) cell cultures
Experiment: Endogenous reactive oxygen species (ROS) level in NHEK cell cultures, dichlorodihydrofluorescein diacetate fluorescence
Assay type: cell-based
Conditions: overnight incubation, fluorescence at 5.5 hour time point, NHEK cells
Description: Specifically, NHEK cells were cultured and plated, followed by treatment with Resveratrol Ferulates at concentrations of about 10 μM, 25 μM, and 50 μM. As comparative examples, some NHEK cells were separated treated with resveratrol at a concentration of about 25 μM. Further as control examples, some NHEK cells were maintained without treatment with either Resveratrol Ferulates or resveratrol. Four samples of NHEK cells were provided for each treatment. After overnight incubation of the cell cultures, dichlorodihydrofluorescein diacetate was added thereinto. Dichlorodihydrofluorescein diacetate is a useful fluorogenic reagent for detecting reactive oxygen species in cells. Upon oxidation by the reactive oxygen species, dichlorodihydrofluorescein diacetate becomes the highly green fluorescent dichlorofluorescein, which can be readily detected by fluorescene spectroscopy. For example, a Gemini EM microplate spectrofluorometer commercially available from Molecular Devices at Sunnyvale, Calif. was employed to measure the fluorescence (Ex450, Em525) of the cell cultures at the 5.5 hour time point, which was used as an indication of the amount of reactive oxygen species (primarily H2O2) in the cells.

Oc1ccc(C=Cc2cc(O)cc(O)c2)cc1 [resveratrol, 3,5,4′-trihydroxystilbene]
average reduction in ROS level in comparison with the control samples (10 μM): about 62.0%
average reduction in ROS level in comparison with the control samples (25 μM): about 69.5%
